Data as given in US11679108B2, “Aromatic heterocyclic compound, and pharmaceutical composition and use thereof” (GUANGZHOU HENOVCOM BIOSCIENCE CO., LTD., priority 2018, dated 2023).

How the values were obtained:
ATX = ATX (Homo sapiens, UniProt Q13822); test: Analysis in vitro: LPC was used as substrate for screening enzyme activity (Amplex Red fluorescence); type: biochemical; settings: inhibitory activity against ATX, with LPC as substrate
How it was run: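 ATX lysoPLD activity was measured by coupled detection: LPC hydrolysis releases choline, which choline oxidase/HRP convert to an Amplex Red fluorescent signal (ex 530/em 590 nm). The enzyme mix (2 ng/μl ATX, 2 U/ml HRP, 0.2 U/ml choline oxidase) was combined with the substrate mix ([…], 400 μM Amplex Red) and 10-point threefold compound dilutions for 30 min. IC50 was derived from the inhibition ratio.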

ATX in human plasma = biological target: T1, ATX in human plasma (Homo sapiens, UniProt Q13822); test: Analysis in vitro: detection of LPA in human plasma for screening activity (LPA 18:2 by LC/MS/MS); type: biochemical; settings: incubated 2 hours at 37° C., LPA 18:2 detected by LC/MS/MS
T1 construct: blank plasma was derived from at least 6 individual people; from tissue; host or cells: human plasma (pooled from at least 6 individuals)
How it was run: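 Compounds at 0 to 10 μM were incubated for 2 h at 37° C. under 5% CO2 in pooled human plasma (≥6 donors), with endogenous LPC acting as substrate. LPA 18:2 was quantified by LC/MS/MS with an LPA 17:0 internal standard after methanol precipitation. IC50 values came from residual activity relative to compound-free plasma across 8 points of a 3-fold dilution series.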

| IC50 (ATX) [nM] | IC50 (ATX in human plasma) [nM] | Compound |
| --- | --- | --- |
| 0.01 to 100 | 100 to 500 | CCc1nc2sc(N3CC[C@H](N(C)CC(=O)N4CC(F)C4)C3)nn2c1N(C)c1nc(-c2ccc(F)cc2)c(C#N)s1 [Example 38, (S)-2-{[6-ethyl-2-(3-((2-(3-fluoroazetidin-1-yl)-2-oxoethyl)(methyl)amino)pyrrolidin-1-yl)imidazo[2,1-b][1,3,4]thiadiazol-5-yl](methyl)amino}-4-(4-fluorophenyl)thiazole-5-carbonitrile] |
| 0.01 to 100 | 100 to 500 | CCc1nc2sc(N3CC[C@@H](N(C)C(=O)N4CC(O)C4)C3)nn2c1N(C)c1nc(-c2ccc(F)cc2)c(C#N)s1 [Example 36, (R)—N-{1-[5-((5-cyano-4-(4-fluorophenyl)thiazol-2-yl)(methyl)amino)-6-ethylimidazo[2,1-b][1,3,4]thiadiazol-2-yl]pyrrolidin-3-yl}-3-hydroxy-N-methylazetidine-1-carboxamide] |
| 0.01 to 100 | 0.01 to 100 | CCc1nc2sc(N3CC[C@H](N(C)CC(=O)N4CC(O)C4)C3)nn2c1N(C)c1nc(-c2ccc(F)cc2)c(C#N)s1 [Example 22, (S)-2-{[6-ethyl-2-(3-((2-(3-hydroxyazetidin-1-yl)-2oxoethyl)(methyl)amino)pyrrolidin-1-yl)imidazo[2,1-b][1,3,4]thiadiazol-5-yl](methyl)amino}-4-(4-fluorophenyl)thiazole-5-carbonitrile] |

The next lines start with the molecule.

| Compound | IC50 (ATX) [nM] | IC50 (ATX in human plasma) [nM] |
| --- | --- | --- |
| CCc1nc2sc(N3CC[C@@H](N(C)C(N)=O)C3)nn2c1N(C)c1nc(-c2ccc(F)cc2)c(C#N)s1 [Example 19, (R)-1-{1-[5-((5-cyano-4-(4-fluorophenyl)thiazol-2-yl)(methyl)amino)-6-ethylimidazo[2,1-b][1,3,4]thiadiazol-2-yl]pyrrolidin-3-yl}-1-methylurea] | 0.01 to 100 | 100 to 500 |
| CCc1nc2sc(C3CCN(CC(=O)N4CC(O)C4)CC3)nn2c1N(C)c1nc(-c2ccc(F)cc2)c(C#N)s1 [Example 17, 2-{[6-ethyl-2-(1-(2-(3-hydroxyazetidin-1-yl)-2oxoethyl)piperidin-4-yl)imidazo[2,1-b][1,3,4]thiadiazol-5-yl](methyl)amino}-4-(4-fluorophenyl)thiazole-5-carbonitrile] | 100 to 500 | 0.01 to 100 |
| CCc1nc2sc(N3CCC[C@@H](N(C)CC(=O)N4CC(O)C4)C3)nn2c1N(C)c1nc(-c2ccc(F)cc2)c(C#N)s1 [Example 23, (R)-2-{[6-ethyl-2-(3-((2-(3-hydroxyazetidin-1-yl)-2-oxoethyl)(methyl)amino)piperidin-1-yl)imidazo[2,1-b][1,3,4]thiadiazol-5-yl](methyl)amino}-4-(4-fluorophenyl)thiazole-5-carbonitrile] | 100 to 500 | 100 to 500 |
